Data published in patent US11117947B2, “Double-acylated GLP-1 derivatives” (Novo Nordisk A/S, priority 2011, dated 2021).
Numbered stars: 1 amine (or outer) side, 2 acyl side, 3 side chain; on linkers, the order of the positions; unused ones are H or OH. Square brackets hold non-standard residues; d marks the D form. Side chains are listed from the residue outwards. Peptide text beside a SMILES is read from it. * marks the point of attachment. Decanoyl(10-(4-HOOC-PhO)) = O=C(O)c1ccc(OCCCCCCCCCC(=O)*)cc1; γGlu = O=C(O)[C@H](CCC(=O)[*:2])N[*:1]; C14 diacid = O=C(O)CCCCCCCCCCCCC(=O)*; AEEA = NCCOCCOCC(=O)O; Aib = CC(C)(N)C(=O)O

How the values were obtained:
[1] = Pharmacokinetics in rat: half-life after i.v. administration; assay type: in vivo; settings: plasma, iv, 6 nmol/kg, male Sprague Dawley rats, approximately 4 rats per group, read-out: t½/h (half-life in rat) (converted)
Procedure: In vivo pharmacokinetic studies in rats were performed with the GLP-1 derivatives of Examples 2, 10, 17-18, and 31, as described in the following. Semaglutide was included for comparison.
Male Sprague Dawley rats of same age with a body weight of approximately 400 g were obtained from Taconic (Denmark) and assigned to the treatments by simple randomisation on body weight, approximately 4 rats per group, so that all animals in each group were of similar body weight.
The GLP-1 derivatives (approximately 6 nmol/ml) were dissolved in 50 mM sodium phosphate, 145 mM sodium chloride, 0.05% tween 80, pH 7.4. Intravenous injections (1.0 ml/kg) of the compounds were given through a catheter implanted in the right jugular vein. Blood was sampled from vena sublingualis for 5 days post dosing. Blood samples (200 μl) were collected in EDTA buffer (8 mM) and then centrifuged at 4° C. and 10000 G for 5 minutes. Plasma samples were kept at −20° C. until analyzed for plasma concentration of the respective GLP-1 compound.
The plasma concentrations of the GLP-1 compounds were determined using a Luminescence Oxygen Channeling Immunoasssay (LOCI), generally as described for the determination of insulin by Poulsen and Jensen in Journal of Biomolecular Screening 2007, vol. 12, p. 240-247. The donor beads were coated with streptavidin, while acceptor beads were conjugated with a monoclonal antibody recognising a mid-/C-terminal epitope of the peptide. Another monoclonal antibody, specific for the N-terminus, was biotinylated. The three reactants were combined with the analyte and formed a two-sited immuno-complex. Illumination of the complex released singlet oxygen atoms from the donor beads, which were channeled into the acceptor beads and triggered chemiluminescence which was measured in an Envision plate reader. The amount of light was proportional to the concentration of the compound.
Plasma concentration-time profiles were analyzed using Phoenix WinNonLin ver. 6.2, Pharsight Inc., Mountain View, Calif., USA), and the half-life (T1/2) calculated using individual plasma concentration-time profiles from each animal.

[2] = Estimate of oral bioavailability: gut injection in rat (caprate), exposure in plasma; assay type: in vivo; settings: injection in jejunum, 1000 uM in 55 mg/ml sodium caprate, plasma concentration (pM) at 30 min divided by dosing solution concentration (μM), mean n=4
Outline: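 Male Sprague Dawley rats (~240 g, n=4) received 100 μl of 1000 uM derivative in 55 mg/ml sodium caprate by catheter into proximal or mid jejunum. Tail-vein EDTA plasma was sampled up to 240 min. Peptide was quantified by two-antibody bead chemiluminescence immunoassay, giving mean concentration-time profiles (pmol/l).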

human GLP-1 receptor = target: T1, human GLP-1 receptor (Homo sapiens, UniProt P43220); assay: GLP-1 receptor binding: displacement of 125I-GLP-1 (SPA) at low and high albumin; settings: 2.0% HSA vs 0.001% HSA
T1 construct: expressed in transfected cells; membranes
Outline: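 Membranes from hamster cells stably transfected with the receptor, with WGA SPA beads and 0.06 nM [^125I]-GLP-1(7-36)NH2, incubated 120 min at 30 °C with shaking.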

T1 sequence (P43220 24-463): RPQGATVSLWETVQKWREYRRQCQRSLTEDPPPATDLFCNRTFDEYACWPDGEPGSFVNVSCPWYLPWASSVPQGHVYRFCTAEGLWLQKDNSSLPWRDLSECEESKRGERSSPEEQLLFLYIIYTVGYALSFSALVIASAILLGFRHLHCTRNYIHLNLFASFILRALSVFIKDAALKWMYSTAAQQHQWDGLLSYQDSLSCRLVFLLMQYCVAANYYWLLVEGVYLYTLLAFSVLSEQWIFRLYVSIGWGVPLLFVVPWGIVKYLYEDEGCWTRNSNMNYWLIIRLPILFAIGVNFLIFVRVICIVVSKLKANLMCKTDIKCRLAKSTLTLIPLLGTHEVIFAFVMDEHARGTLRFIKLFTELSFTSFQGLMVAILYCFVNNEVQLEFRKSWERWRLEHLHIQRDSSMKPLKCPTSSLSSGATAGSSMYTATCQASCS

Compound	half-life [1] [h]	Dose-corrected exposure at 30 min [2]	Ratio [(IC50/nM) high HSA]/[(IC50/nM) low HSA] (human GLP-1 receptor)
CC[C@H](C)[C@H](NC(=O)[C@H](Cc1ccccc1)NC(=O)[C@H](CCCCNC(=O)COCCOCCNC(=O)COCCOCCNC(=O)CC[C@H](NC(=O)CCCCCCCCCOc1ccc(C(=O)O)cc1)C(=O)O)NC(=O)[C@H](Cc1c[nH]cn1)NC(=O)[C@H](C)NC(=O)[C@H](C)NC(=O)[C@H](CCC(N)=O)NC(=O)CNC(=O)[C@H](CCC(=O)O)NC(=O)[C@H](CC(C)C)NC(=O)[C@H](Cc1ccc(O)cc1)NC(=O)[C@H](CO)NC(=O)[C@H](CO)NC(=O)[C@@H](NC(=O)[C@H](CC(=O)O)NC(=O)[C@H](CO)NC(=O)[C@@H](NC(=O)[C@H](Cc1ccccc1)NC(=O)[C@@H](NC(=O)CNC(=O)[C@H](CCC(=O)O)NC(=O)[C@H](C)NC(=O)[C@@H](N)Cc1c[nH]cn1)[C@@H](C)O)[C@@H](C)O)C(C)C)C(=O)N[C@@H](CCC(=O)O)C(=O)N[C@@H](Cc1c[nH]c2ccccc12)C(=O)N[C@@H](CC(C)C)C(=O)N[C@H](C(=O)N[C@@H](CCCNC(=N)N)C(=O)NCC(=O)N[C@@H](CCCCNC(=O)COCCOCCNC(=O)COCCOCCNC(=O)CC[C@H](NC(=O)CCCCCCCCCOc1ccc(C(=O)O)cc1)C(=O)O)C(=O)NCC(=O)N[C@@H](CCC(=O)O)C(=O)O)C(C)C [Example 10, N^ε27-[2-[2-[2-[[2-[2-[2-[[(4S)-4-carboxy-4-[10-(4-carboxyphenoxy)decanoylamino]butanoyl]amino]ethoxy]ethoxy]acetyl]amino]ethoxy]ethoxy]acetyl], N^ε36-[2-[2-[2-[[2-[2-[2-[[(4S)-4-carboxy-4-[10-(4-carboxyphenoxy)decanoylamino]butanoyl]amino]ethoxy]ethoxy]acetyl]amino]ethoxy]ethoxy]acetyl]-[His^26,Lys^27,Glu^30,Arg^34,Lys^36]-GLP-1-(7-37)-peptidyl-Glu] (H-HAEGTFTSDVSSYLEGQAAHK([AEEA-AEEA-γGlu-Decanoyl(10-(4-HOOC-PhO))])FIEWLVRGK([AEEA-AEEA-γGlu-Decanoyl(10-(4-HOOC-PhO))])GE-OH; N-terminus and C-terminus assumed)	23	187	
CC[C@H](C)[C@H](NC(=O)[C@H](Cc1ccccc1)NC(=O)[C@H](CCCCNC(=O)COCCOCCNC(=O)COCCOCCNC(=O)CC[C@H](NC(=O)CCCCCCCCCCCCC(=O)O)C(=O)O)NC(=O)[C@H](CCCNC(=N)N)NC(=O)[C@@H](NC(=O)[C@H](C)NC(=O)[C@H](CCC(=O)O)NC(=O)[C@H](CCC(=O)O)NC(=O)[C@H](CCC(=O)O)NC(=O)[C@H](CC(C)C)NC(=O)[C@H](Cc1ccc(O)cc1)NC(=O)[C@H](CO)NC(=O)[C@H](CO)NC(=O)[C@@H](NC(=O)[C@H](CC(=O)O)NC(=O)[C@H](CO)NC(=O)[C@@H](NC(=O)[C@H](Cc1ccccc1)NC(=O)[C@@H](NC(=O)CNC(=O)[C@H](CCC(=O)O)NC(=O)[C@H](C)NC(=O)[C@@H](N)Cc1c[nH]cn1)[C@@H](C)O)[C@@H](C)O)C(C)C)C(C)C)C(=O)N[C@@H](C)C(=O)N[C@@H](Cc1c[nH]cn1)C(=O)N[C@@H](CC(C)C)C(=O)N[C@H](C(=O)N[C@@H](CCC(N)=O)C(=O)NCC(=O)N[C@@H](CCCNC(=N)N)C(=O)N[C@@H](CCCCNC(=O)COCCOCCNC(=O)COCCOCCNC(=O)CC[C@H](NC(=O)CCCCCCCCCCCCC(=O)O)C(=O)O)C(=O)O)C(C)C [Example 17, N^ε27-[2-[2-[2-[[2-[2-[2-[[(4S)-4-carboxy-4-(13-carboxytridecanoylamino)butanoyl]amino]ethoxy]ethoxy]acetyl]amino]ethoxy]ethoxy]acetyl], N^ε37-[2-[2-[2-[[2-[2-[2-[[(4S)-4-carboxy-4-(13-carboxytridecanoylamino)butanoyl]amino]ethoxy]ethoxy]acetyl]amino]ethoxy]ethoxy]acetyl]-[Glu^22,Glu^23,Val^25,Arg^26,Lys^27,His^31,Gln^34,Lys^37]-GLP-1-(7-37)-peptide] (H-HAEGTFTSDVSSYLEEEAVRK([AEEA-AEEA-γGlu-C14 diacid])FIAHLVQGRK([AEEA-AEEA-γGlu-C14 diacid])-OH; N-terminus and C-terminus assumed)	10	168	
CC[C@H](C)[C@H](NC(=O)[C@H](Cc1ccccc1)NC(=O)[C@H](CCCCNC(=O)COCCOCCNC(=O)COCCOCCNC(=O)CC[C@H](NC(=O)CCCCCCCCCOc1ccc(C(=O)O)cc1)C(=O)O)NC(=O)[C@H](CCCNC(=N)N)NC(=O)[C@H](C)NC(=O)[C@H](C)NC(=O)[C@H](CCC(N)=O)NC(=O)[C@H](CCC(=O)O)NC(=O)[C@H](CCC(=O)O)NC(=O)[C@H](CC(C)C)NC(=O)[C@H](Cc1ccc(O)cc1)NC(=O)[C@H](CO)NC(=O)[C@H](CO)NC(=O)[C@@H](NC(=O)[C@H](CC(=O)O)NC(=O)[C@H](CO)NC(=O)[C@@H](NC(=O)[C@H](Cc1ccccc1)NC(=O)[C@@H](NC(=O)CNC(=O)[C@H](CCC(=O)O)NC(=O)C(C)(C)NC(=O)[C@@H](N)Cc1c[nH]cn1)[C@@H](C)O)[C@@H](C)O)C(C)C)C(=O)N[C@@H](CCC(=O)O)C(=O)N[C@@H](Cc1c[nH]c2ccccc12)C(=O)N[C@@H](CC(C)C)C(=O)N[C@H](C(=O)N[C@@H](CCCNC(=N)N)C(=O)NCC(=O)N[C@@H](CCCCNC(=O)COCCOCCNC(=O)COCCOCCNC(=O)CC[C@H](NC(=O)CCCCCCCCCOc1ccc(C(=O)O)cc1)C(=O)O)C(=O)NCC(=O)N[C@@H](CCC(=O)O)C(=O)NCC(=O)O)C(C)C [Example 31, N^ε27-[2-[2-[2-[[2-[2-[2-[[(4S)-4-carboxy-4-[10-(4-carboxyphenoxy)decanoylamino]butanoyl]amino]ethoxy]ethoxy]acetyl]amino]ethoxy]ethoxy]acetyl], N^ε36-[2-[2-[2-[[2-[2-[2-[[(4S)-4-carboxy-4-[10-(4-carboxyphenoxy)decanoylamino]butanoyl]amino]ethoxy]ethoxy]acetyl]amino]ethoxy]ethoxy]acetyl]-[Aib^8,Glu^22,Arg^26,Lys^27,Glu^30,Arg^34,Lys^36]-GLP-1-(7-37)-peptidyl-Glu-Gly] (H-H[Aib]EGTFTSDVSSYLEEQAARK([AEEA-AEEA-γGlu-Decanoyl(10-(4-HOOC-PhO))])FIEWLVRGK([AEEA-AEEA-γGlu-Decanoyl(10-(4-HOOC-PhO))])GEG-OH; N-terminus and C-terminus assumed)	19		629
